Consider 5 molecules from patent publication US6372795B1, “Cosmetic compositions containing substituted amide derivatives” (Unilever Home and Personal Care USA, A Division of Conopco, …, priority 2000, dated 2002).

Molecules are shown by their SMILES. Values joined by “and” are separate entries in the source; they are usually repeats but may differ in a detail not shown here. Equal entries are not always repeated. Where two headings read alike, the source gives them in different places.

This assay concerns human sebocytes. The experiment in a line: Sebum suppression in secondary cultures of human sebocytes (14C-acetate label remaining in sebocytes). Format: cell-based. To be noted: for activity at 1 µM / activity at 10 µM: Homo sapiens, read-out: % of Control; for activity at 1 µM / activity at 10 µM / % of Control: human sebocytes; for sebum suppressive activity in the presence of a retinoid (combined with retinol): compared with compound alone, summary in words. The method, then:
Compounds A through G were tested for their potential to suppress sebum expression, alone or in the presence of a retinoid.
Secondary cultures of human sebocytes obtained from an adult […] were grown in 48-well tissue culture plates (Costar Corp.; Cambridge, Ma.) or 96-well tissue culture plates (Packard Co.; Meriden, Conn.) until confluent. Sebocyte growth medium consisted of Clonetics Keratinocyte Basal Medium (KBM) supplemented with 14 μg/ml bovine pituitary extract, 0.4 μg/ml hydrocortisone, 5 μg/ml insulin, 10 ng/ml epidermal growth factor, 1.2×10^-10 M cholera toxin, 100 units/ml penicillin, and 100 μg/ml streptomycin. All cultures were incubated at 37° C. in the presence of 7.5% CO2. Medium was changed three times per week.
On the day of experimentation, the growth medium was removed and the sebocytes washed three times with sterile Dulbecco's Modified Eagle Medium (DMEM; phenol red free). Fresh DMEM was added to each sample (duplicates, triplicates, or quadruplicates depending on the experiment) with 5 microliter of test agent solubilized in ethanol either alone or in the presence of one or 10 micromolar of retinol. Controls consisted of addition of ethanol alone, retinol alone, or phenol red, which has estrogen-like activity and is included as a positive control.
Each plate was returned to the incubator for 20 hours followed by the addition of 14C-acetate buffer (5 mM final concentration, 56 mCi/mmol specific activity). Sebocytes were returned to the incubator for four hours afterwhich each culture was rinsed three times with phosphate buffered saline to remove unbound label. Radioactive label remaining in the sebocytes was harvested and counted using a Beckman scintillation counter.

[1] abbreviates: 1 μM test compound + 1 μM Retinol.
Where [2] appears, read: 1 μM test compound + 10 μM Retinol.
Setting [3] is: 1 μM test compound alone, 20 h + 4 h 14C-acetate.
The mark [4] stands for this setting: 10 μM test compound + 1 μM Retinol.
The mark [5] stands for this setting: 10 μM test compound + 10 μM Retinol.

Turning to `CCOC(=O)c1ccc(NC(=O)Nc2cccc(C(C)O)c2)cc1` (centres unmarked) [Compound D], the “sebum suppressive activity in the presence of a retinoid (combined with retinol)” value was “improved sebum suppressive activity”. The activity at 1 µM under setting [1] is 82.8%. Moreover, the activity at 1 µM under setting [2] amounted to 78%. Also, under setting [3], the activity at 1 µM was 82.4%. In addition, under setting [4], the activity at 10 µM turned out to be 66.8%. Besides, under setting [5], the activity at 10 µM is 25%. In addition, the activity at 10 µM (10 μM test compound alone) came out at 58.5%.
As for `O=C(Nc1ccc(O)cc1)Nc1cccc(C(F)(F)F)c1` [Compound E], the “sebum suppressive activity in the presence of a retinoid (combined with retinol)” value is recorded as “improved sebum suppressive activity”.
For the molecule `CCOC(=O)c1ccc(NC(=O)Nc2ccc(O)cc2)cc1` [Compound F], the “sebum suppressive activity in the presence of a retinoid (combined with retinol)” value is “improved sebum suppressive activity”. Besides, the “% of Control” value under setting [4] is 53.1% and 73.4%. The “% of Control” value under setting [5] is 63.4% and 40.4%. Also, where the note is “10 μM test compound alone, 10 µM”, the “% of Control” value turned out to be 72.0%. Under setting [1], the activity at 1 µM is 71%. In addition, the activity at 1 µM under setting [2] is 76.2%. The activity at 1 µM under setting [3] came out at 84%. Also, the activity at 10 µM (10 μM test compound alone) turned out to be 57.4%.
On to `Cc1cccc(N2CCN(C(=O)CC3C=CC(CC(=O)N4CCN(c5cccc(C)c5)C(C)C4)C3)CC2C)c1` (centres unmarked) [G], for which the “sebum suppressive activity in the presence of a retinoid (combined with retinol)” value is on record as “improved sebum suppressive activity”.
On to `CC1=C(/C=C/C(C)=C/C=C/C(C)=C/CO)C(C)(C)CCC1` [Retinol, retinol, reference compound], for which the “% of Control” value was 99.9% (1 μM Retinol alone); 103.7% and 100.9% and 100.1% (10 μM Retinol alone). The sebum suppressive activity result (substance alone, summary in words of Tables 1-12) is “inactive”.
